# According to patent publication US6653529B2, “Use of the maize X112 mutant ahas 2 gene and imidazolinone herbicides for selection of transgenic monocots, maize, rice and wheat plants resistant to the imidazolinone herbicides” (BASF Aktiengesellschaft, priority 2000, dated 2003):
# Values joined by “and” are separate entries in the source; they are usually repeats but may differ in a detail not shown here. Equal values may be shown once.
# Assays:
# Assay type in all cases: in vivo
# [1] = system: untransformed Nt rice plants; experiment: Response of rice plants to various herbicides, seed set in greenhouse; details: post-emergence, 1× g ai/ha: PURSUIT 62.5, CADRE 32, ARSENAL 24, RAPTOR 32, SCEPTER 125, ACCENT 35, CLASSIC 5, AC322,140 20, LONDAX 68
# From the text: (§1) A total of 9 herbicides, 5 imidazolinones, two rice herbicides and ACCENT® (nicosulfuron) and CLASSIC® (clorimuron-ethyl) were applied in this study. Materials and methods were basically the same as described above, except that instead of 6″ pots, flats with 18 (3″×3″ per cell) cells were used, and 10-12 seeds were planted to one 3″×3″ cell. Ten plants were maintained in one cell in the post-emergence application. Each herbicide was sprayed at 4 different rates, 1, 2, 4, and 6×, as either pre or post-emergence applications with three replications per treatment. The name and amount of herbicide applied in this experiment and information relevant to their commercial applications are listed in Table 3. For simplicity and convenience, the lowest concentration used is referred as 1× rate, 2, 4 and 6× rates can be calculated as multiples of 1×.
# (§2) To monitor plant response to various herbicides, data on fresh weight was collected. For pre-emergence applications, all plants from one cell were harvested 32 days after spraying (36-day old plants) and weighed. Twenty-nine days after herbicide application, 5 plants (44-day old plants) from each cell in the post-emergence application, were cut and weighed individually. Mean fresh weight for each treatment was calculated over three replications. The remaining 5 plants were grown in the greenhouse to maturity at which time, panicles of 3 plants were collected, and number of filled seeds and number of total kernels were counted to determine percentage of seed set.
# transgenic rice Line 26 = experiment: as above; details: post-emergence, 1× g ai/ha: PURSUIT 62.5, CADRE 32, ARSENAL 24, RAPTOR 32, SCEPTER 125, ACCENT 35, CLASSIC 5, AC322,140 20, LONDAX 68
# From the text: as §1, §2
# transgenic rice Line 29 = experiment: as above; details: post-emergence, 1× g ai/ha: PURSUIT 62.5, CADRE 32, ARSENAL 24, RAPTOR 32, SCEPTER 125, ACCENT 35, CLASSIC 5, AC322,140 20, LONDAX 68
# From the text: as §1, §2
# [2] = system: 8692IT (heterozygous XI12 imi-tolerant corn line); experiment: Greenhouse spray test of corn lines with imidazolinone herbicides, injury score; details: for Score, individual plants (0 dead plants, 5 healthy plants with no injury): 16 days after treatment; for M.S.: score 0 (dead) to 5 (healthy), 16 days
# [3] = system: 3395IR (homozygous XA17 imi-resistant corn line); experiment: as above; details: for Score, individual plants (0 dead plants, 5 healthy plants with no injury): 16 days after treatment; for M.S.: score 0 (dead) to 5 (healthy), 16 days
# From the text: (§3) Grow one corn plant per pot (5×5 inch) in a 3×5 flat till three- to four-leaf stage (about 9 to 13 days depending on the weather). On the day of spraying, water the plants well and let excess water drip out. Spray plants on a belt-sprayer with the imidazolinone herbicides at desired rates. […] When temperature was too high, base water plants to prevent wilting. Closely observe the plants for the next two to three weeks. Symptoms of herbicide injury will be visible three days after spraying and susceptible plants will die within two to three weeks depending on temperature.
# (§4) The plants were rated on a scale of 0-5 with 0 for dead plants and 5 for healthy plants with no or minimum injury.
# (§5) Two transgenic hybrids BAa-4 and MAa-7 lines (see FIG. 5 for their pedigree), a non-transformed control line B×A (B73×A188), 8962IT (heterozygous XI12 imi-tolerant corn line), 8962 (wild type control) and 3395IR (homozygous XA17 imi-resistant corn line) (8962IT and 8962 were from ICI, now Garst Seed Company, Slater, Iowa 50244, and 3395IR was from Pioneer Hi-Bred International Inc, Iowa 50306-3453). Plants were sprayed with 4, 8, 16 or 20×PURSUIT® imazethapyr, ARSENAL® imazapyr, CADRE® imazameth or RAPTOR® imazamox. Plants were scored 0 to 5 (with 0 being dead plants, 5 being healthy plants with no injury) individually 16 days after herbicide treatments. […] For the four tested imidazolinones, transgenic plants could tolerate higher rates of ARSENAL® imazapyr, PURSUIT® imazethapyr, than CADRE® imazameth and RAPTOR® imazamox.
# [4] = system: transgenic corn hybrid BAa-4; experiment: as above; details: BAa-4; for Score, individual plants (0 dead plants, 5 healthy plants with no injury): 16 days after treatment; for M.S.: score 0 (dead) to 5 (healthy), 16 days
# From the text: as §3, §4, §5
# [5] = system: transgenic corn hybrid MAa-7; experiment: as above; details: MAa-7; for Score, individual plants (0 dead plants, 5 healthy plants with no injury): 16 days after treatment; for M.S.: score 0 (dead) to 5 (healthy), 16 days
# From the text: as §3, §4, §5
# [6] = system: non-transformed control corn line BxA (B73×A188); experiment: as above; details: for Score, individual plants (0 dead plants, 5 healthy plants with no injury): 16 days after treatment; for M.S.: score 0 (dead) to 5 (healthy), 16 days
# From the text: as §3, §4, §5
# [7] = 4×: PURSUIT 250, RAPTOR 160, ARSENAL 96, CADRE 400 g/ha
# [8] = 8×: PURSUIT 500, RAPTOR 320, ARSENAL 192, CADRE 800 g/ha
# [9] = 16×: RAPTOR 640 g/ha, ARSENAL 384 g/ha, CADRE 1.6 kg/ha
smiles,measurement,setting,value
"CC(C)C1(C)N=C(c2ncccc2C(=O)O)NC1=O (stereo not drawn) [ARSENAL ®, imazapyr]",% seed-set,[1]; 1× rate,0%
same,No. filled seeds/3 panicles,[1]; 1× rate,0
same,Total No. of kernels/3 panicles,[1]; 1× rate,0
same,% seed-set,[1]; 2× rate,0%
same,No. filled seeds/3 panicles,[1]; 2× rate,0
same,Total No. of kernels/3 panicles,[1]; 2× rate,0
same,% seed-set,[1]; 4× rate,0%
same,No. filled seeds/3 panicles,[1]; 4× rate,0
same,Total No. of kernels/3 panicles,[1]; 4× rate,0
same,% seed-set,[1]; 6× rate,0%
same,No. filled seeds/3 panicles,[1]; 6× rate,0
same,Total No. of kernels/3 panicles,[1]; 6× rate,0
same,% seed-set,transgenic rice Line 26; 1× rate,85%
same,No. filled seeds/3 panicles,transgenic rice Line 26; 1× rate,156
same,Total No. of kernels/3 panicles,transgenic rice Line 26; 1× rate,183
same,% seed-set,transgenic rice Line 26; 2× rate,77%
same,No. filled seeds/3 panicles,transgenic rice Line 26; 2× rate,132
same,Total No. of kernels/3 panicles,transgenic rice Line 26; 2× rate,170
same,% seed-set,transgenic rice Line 26; 4× rate,6%
same,No. filled seeds/3 panicles,transgenic rice Line 26; 4× rate,10
same,Total No. of kernels/3 panicles,transgenic rice Line 26; 4× rate,170
same,% seed-set,transgenic rice Line 26; 6× rate,1%
same,No. filled seeds/3 panicles,transgenic rice Line 26; 6× rate,2
same,Total No. of kernels/3 panicles,transgenic rice Line 26; 6× rate,178
same,% seed-set,transgenic rice Line 29; 1× rate,90%
same,No. filled seeds/3 panicles,transgenic rice Line 29; 1× rate,122
same,Total No. of kernels/3 panicles,transgenic rice Line 29; 1× rate,137
same,% seed-set,transgenic rice Line 29; 2× rate,81%
same,No. filled seeds/3 panicles,transgenic rice Line 29; 2× rate,116
same,Total No. of kernels/3 panicles,transgenic rice Line 29; 2× rate,144
same,% seed-set,transgenic rice Line 29; 4× rate,26%
same,No. filled seeds/3 panicles,transgenic rice Line 29; 4× rate,41
same,Total No. of kernels/3 panicles,transgenic rice Line 29; 4× rate,179
same,% seed-set,transgenic rice Line 29; 6× rate,19%
same,No. filled seeds/3 panicles,transgenic rice Line 29; 6× rate,27
same,Total No. of kernels/3 panicles,transgenic rice Line 29; 6× rate,140
same,"Score, individual plants (0 dead plants, 5 healthy plants with no injury)",[2]; [7],4
same,M.S.,[2]; [7],4
same,"Score, individual plants (0 dead plants, 5 healthy plants with no injury)",[2]; [8],4 (2×) and 3 (3×)
same,M.S.,[2]; [8],3.4
same,"Score, individual plants (0 dead plants, 5 healthy plants with no injury)",[2]; [9],4 and 3 (4×)
same,M.S.,[2]; [9],3.2
same,"Score, individual plants (0 dead plants, 5 healthy plants with no injury)",[3]; [7],5
same,M.S.,[3]; [7],5
same,"Score, individual plants (0 dead plants, 5 healthy plants with no injury)",[3]; [8],5
same,M.S.,[3]; [8],5
same,"Score, individual plants (0 dead plants, 5 healthy plants with no injury)",[3]; [9],4 and 5 (4×)
same,M.S.,[3]; [9],4.8
same,"Score, individual plants (0 dead plants, 5 healthy plants with no injury)",[4]; [7],5
same,M.S.,[4]; [7],5
same,"Score, individual plants (0 dead plants, 5 healthy plants with no injury)",[4]; [8],5
same,M.S.,[4]; [8],5
same,"Score, individual plants (0 dead plants, 5 healthy plants with no injury)",[4]; [9],5 (2×) and 4 (3×)
same,M.S.,[4]; [9],4.4
same,"Score, individual plants (0 dead plants, 5 healthy plants with no injury)",[5]; [7],5
same,M.S.,[5]; [7],5
same,"Score, individual plants (0 dead plants, 5 healthy plants with no injury)",[5]; [8],5
same,M.S.,[5]; [8],5
same,"Score, individual plants (0 dead plants, 5 healthy plants with no injury)",[5]; [9],5 (4×) and 4
same,M.S.,[5]; [9],4.8
same,"Score, individual plants (0 dead plants, 5 healthy plants with no injury)",[6]; [7],0
same,M.S.,[6]; [7],0
same,"Score, individual plants (0 dead plants, 5 healthy plants with no injury)",[6]; [8],0
same,M.S.,[6]; [8],0
same,"Score, individual plants (0 dead plants, 5 healthy plants with no injury)",[6]; [9],0
same,M.S.,[6]; [9],0
